The test concerns the target T1, Kitasatospora setae crotonyl-CoA carboxylase/reductase (KsCcr), wild type (WT), SEQ ID NO: 1 (Kitasatospora setae, UniProt E4N096).
T1 construct: gene provided by JGI
T1 sequence (E4N096 1-445): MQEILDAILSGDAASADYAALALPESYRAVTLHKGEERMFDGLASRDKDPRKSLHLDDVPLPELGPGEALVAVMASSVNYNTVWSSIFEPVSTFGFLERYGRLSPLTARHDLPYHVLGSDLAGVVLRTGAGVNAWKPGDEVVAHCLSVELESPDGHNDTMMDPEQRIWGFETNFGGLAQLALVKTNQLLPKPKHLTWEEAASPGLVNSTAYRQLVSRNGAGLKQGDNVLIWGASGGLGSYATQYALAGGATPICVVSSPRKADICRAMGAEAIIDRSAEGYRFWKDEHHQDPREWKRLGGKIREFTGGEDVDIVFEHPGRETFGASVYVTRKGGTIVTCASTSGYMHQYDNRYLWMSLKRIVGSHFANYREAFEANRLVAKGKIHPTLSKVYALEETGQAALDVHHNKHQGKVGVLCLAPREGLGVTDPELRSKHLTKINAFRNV
Format: biochemical. As to conditions: apparent turnover rate with formaldehyde as electrophile; 100 mM K2HPO4 pH 8.0, 30 °C; mean ± standard error. As to the method: His-tagged KsCcr and its variants were expressed in E. coli BL21 (DE3). Cells in terrific broth were grown at 37° C. to an OD600=0.8-1.0 upon which expression for 12-16 h at 23° C. was induced by the addition of 500 μM IPTG (Isopropyl-D-β-thiogalactopyranoside). Cells were harvested for 15 min at 7500× g at 4° C. then resuspended in 2 mL of buffer A (50 mM Tris, 500 mM NaCl, 1 M L-Proline, pH=7.5) per gram of pellet. The suspension was treated with […] of DNAse I, 5 mM MgCl2, 10 μg/ml of lysozyme and incubated on ice for 20 min upon which cells were lysed using a sonicator. The lysate was clarified at 45000× g at 4° C. for 40 min and then loaded onto a pre-equilibrated 1 mL HisTrap FF column and washed with 15% buffer B (50 mM Tris, 500 mM NaCl, 1 M L-Proline, 500 mM imidazole, pH=7.5) for 20-30 column volumes until the UV 280 nm reached the baseline level. […]
Formaldehyde stock solution concentration was determined by following the formation of phenylhydrazone at 368 nm (εPhenylhydrazone,368 nm=6.1 mM^−1 cm^−1). […]
For reactions in which the full conversion to the aldol product was achieved assays were performed on a Cary-60 UV/Vis spectrophotometer (Agilent) at 30° C. using quartz cuvettes (1 mm, 3 mm or 10 mm path length; Hellma). […] Kinetic parameters for one substrate were determined by varying its concentration while the others were kept constant at 10 times their KM value.

Where “and” joins values, the source holds several entries; their conditions need not be identical. Equal values may be shown once.

Regarding `C/C=C/C(=O)SCCNC(=O)CCNC(=O)[C@H](O)C(C)(C)COP(=O)(O)OP(=O)(O)OC[C@H]1O[C@@H](n2cnc3c(N)ncnc32)[C@H](O)[C@@H]1OP(=O)(O)O` [Crotonyl-CoA, crotonyl-CoA], the Kcat was 30 s⁻¹ and 30 ± 1 s⁻¹.

Values taken from patent publication US20250250593A1, “METHOD FOR PREPARING ALPHA-BRANCHED BETA'-HYDROXY CARBONYL COMPOUNDS BY ENZYMATIC-CATALYZED REDUCTIVE ALDOL REACTION” (Max-Planck-Gesellschaft zur Förderung der Wissenschaften …, priority 2022, published 2025).
